Measurements from BindingDB's records for doi:10.1021/bi300261p (University of Colorado Boulder, 2012).

target: T1, Pentachlorophenol 4-monooxygenase (Sphingobium chlorophenolicum, UniProt P42535); experiment: Spectroscopic Assay
T1 sequence (P42535 whole entry): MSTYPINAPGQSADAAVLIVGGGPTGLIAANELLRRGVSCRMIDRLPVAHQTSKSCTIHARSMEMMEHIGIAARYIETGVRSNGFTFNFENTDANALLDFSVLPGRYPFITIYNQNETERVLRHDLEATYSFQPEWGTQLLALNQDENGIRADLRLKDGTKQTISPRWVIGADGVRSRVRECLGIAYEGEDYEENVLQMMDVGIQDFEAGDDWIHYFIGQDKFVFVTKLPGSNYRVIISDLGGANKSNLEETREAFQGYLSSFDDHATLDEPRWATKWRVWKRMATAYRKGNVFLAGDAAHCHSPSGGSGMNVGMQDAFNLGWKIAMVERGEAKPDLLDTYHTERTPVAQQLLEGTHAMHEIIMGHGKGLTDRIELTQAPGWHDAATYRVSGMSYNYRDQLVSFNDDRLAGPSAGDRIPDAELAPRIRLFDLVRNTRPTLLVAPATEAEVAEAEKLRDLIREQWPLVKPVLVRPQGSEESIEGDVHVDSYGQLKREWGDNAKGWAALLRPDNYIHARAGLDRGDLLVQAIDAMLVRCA
Description: Formation of the hydroxylated product and depletion of NADPH were measured following ethyl acetate extraction of the reaction mixture.

Going from `Oc1c(Cl)c(Cl)cc(Cl)c1Cl` [2,3,4,6-Tetrachlorophenol (TCP)] to `Oc1cc(Cl)c(Cl)c(Cl)c1` [SMR001307309], the Kd rises from 11 µM to greater than 500 µM.

Compared with `Oc1c(Cl)cc(Cl)cc1Cl` [2,4,6-Trichlorophenol (2,4,6-TriCP)], `Oc1c(Cl)cccc1Cl` [2,6-Dichlorophenol] is 6.5-fold higher in Kd: 7 µM for the first, 45.5 µM for the second.

`Oc1ccccc1Cl` [2-Chlorophenol (2-CP)] and `Oc1cc(Cl)cc(Cl)c1` [3,5-Dichlorphenol (3,5-DCP)] cannot be ordered by Kd: greater than 1000 µM for the first, greater than 500 µM for the second.

First: Oc1c(Cl)c(Cl)c(Cl)c(Cl)c1Cl [Pentachlorophenol (PCP)]
Second: Oc1c(Cl)c(Cl)c(O)c(Cl)c1Cl [Tetrachlorohydroquinone (TCHQ)]
The Kd of the first is lower: less than 0.05 µM for the first, 4.2 µM for the second.
